Patent US5981704A, “Kainate-binding, human CNS receptors of the EAA2 family” (Allelix Biopharmaceutical, priority 1997, dated 1999)

How the values were obtained:
human EAA2a receptor [1] = target: T1, human EAA2a receptor (Homo sapiens, UniProt Q16478); experiment: [3H]-kainate binding assay (Scatchard analysis and displacement) on membranes of transfected COS-1 cells; conditions: for rank order of potency in displacement of [3H]-labelled kainate binding: FIG. 6
T1 construct: This modification permitted the full length cDNA insert to be released as a 3.7 kb NotI/NotI fragment; expressed in transfected cells; host or cells: COS-1 (ATCC CRL 1650), transient, plasmid pcDNA1/humEAA2a; membranes
T1 sequence (Q16478 15-980): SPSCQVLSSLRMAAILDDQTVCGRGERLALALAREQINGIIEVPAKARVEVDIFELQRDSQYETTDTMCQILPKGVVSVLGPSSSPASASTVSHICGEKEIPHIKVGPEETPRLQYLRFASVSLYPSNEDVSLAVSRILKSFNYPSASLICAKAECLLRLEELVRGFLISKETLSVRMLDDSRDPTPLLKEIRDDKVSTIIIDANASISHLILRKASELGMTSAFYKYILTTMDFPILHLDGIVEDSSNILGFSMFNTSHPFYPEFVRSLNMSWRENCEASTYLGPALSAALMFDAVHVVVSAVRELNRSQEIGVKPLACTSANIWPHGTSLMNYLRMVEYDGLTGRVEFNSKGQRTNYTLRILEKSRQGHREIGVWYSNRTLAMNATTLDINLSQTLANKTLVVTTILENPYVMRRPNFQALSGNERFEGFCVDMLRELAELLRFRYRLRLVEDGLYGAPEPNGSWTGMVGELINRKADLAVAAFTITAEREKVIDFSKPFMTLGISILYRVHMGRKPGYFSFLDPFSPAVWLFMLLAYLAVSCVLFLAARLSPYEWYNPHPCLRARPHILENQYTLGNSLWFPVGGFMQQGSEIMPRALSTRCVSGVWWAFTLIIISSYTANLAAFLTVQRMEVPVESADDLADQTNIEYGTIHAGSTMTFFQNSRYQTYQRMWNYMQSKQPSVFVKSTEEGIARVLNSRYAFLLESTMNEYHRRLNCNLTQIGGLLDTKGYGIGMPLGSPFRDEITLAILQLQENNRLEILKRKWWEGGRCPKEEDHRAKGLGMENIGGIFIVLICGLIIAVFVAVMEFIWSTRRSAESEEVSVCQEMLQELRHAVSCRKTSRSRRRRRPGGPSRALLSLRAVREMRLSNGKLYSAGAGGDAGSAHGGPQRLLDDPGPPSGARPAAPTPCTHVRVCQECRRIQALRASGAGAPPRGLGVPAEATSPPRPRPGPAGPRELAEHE
Procedure: (§1) Transfected cells in the frozen state were resuspended in ice-cold distilled water using a hand homogenizer and centrifuged for 20 minutes at 50,000 g. The supernatant was discarded and the membrane pellet stored frozen at -70° C.
(§2) COS cell membrane pellets were suspended in ice cold 50 mM Tris-HCl (pH 7.55, 5C) and placed inside Spectrapor 7 (EDTA-treated, sulfur-fee) dialysis tubing. The suspension was placed in 4 liters of ice cold 50 mM Tris-HCl (pH 7.55, 5C) and dialyzed for 16-24 hours at 5C in order to remove endogenous glutamate that would compete for binding. The tissue suspension was recovered from the tubing along with a small volume of buffer used to rinse the tubing. This resultant membrane preparation was used as tissue source for binding experiments described below. Proteins were determined using the Pierce Reagent with BSA as standard.
Binding assays were then performed, using an amount of COS-derived membrane equivalent to from 25-100 ug as judged by protein determination and selected radiolabelled ligand. In particular, glutamate binding assays entailed formation of an incubation mixture consisting of 25-100 ug of tissue protein, and [3.4-3H]L-glutamic acid (47.3 Ci/mmole, 10 nM final) in 50 mM Tris-HCl (pH 7.55, 5C) in 1 ml final volume. Non-specific binding was in the presence of 1 mM L-glutamate. Samples were incubated on ice for 60 minutes in plastic minivials. Bound and free ligand were separated by centrifugation for 10 minutes at 50,000 g (4° C.). Tissue pellets were washed superficially with 2×6 ml of ice cold incubation buffer. Pellets were solubilized and counted in 5 ml of Beckman Ready Protein Scintillation cocktail.
For kainate binding assays, incubation mixtures consisted of 25-100 μg tissue protein and [vinylidene-3H] kainic acid (58 Ci/mmole, 5 nM final) in the cold incubation buffer, 1 ml final volume. Non-specific binding was in the presence of 1 mM L-glutamate. Samples were incubated as for the glutamate binding assays, and bound and free ligand were separated by rapid filtration using a Brandel cell harvester and GF/B filters pro-soaked in ice-cold 0.3% polyethyleneimine. Filters were washed twice in 6 ml of the cold incubation buffer, then placed in scintillation vials with 5 ml of Beckman Ready-Safe scintillation cocktail for counting.

human EAA2a receptor [2] = target: T1, human EAA2a receptor; experiment: [3H]-glutamate binding assay on membranes of transfected COS-1 cells; conditions: [3H]-glutamate at 10 nM; non-specific binding with 1 mM L-glutamate
Procedure: as §1, §2
Binding assays were then performed, using an amount of COS-derived membrane equivalent to from 25-100 ug as judged by protein determination and selected radiolabelled ligand. In particular, glutamate binding assays entailed formation of an incubation mixture consisting of 25-100 ug of tissue protein, and [3.4-3H]L-glutamic acid (47.3 Ci/mmole, 10 nM final) in 50 mM Tris-HCl (pH 7.55, 5C) in 1 ml final volume. […] Pellets were solubilized and counted in 5 ml of Beckman Ready Protein Scintillation cocktail.

## N[C@@]1(C(=O)O)CC[C@@H](C(=O)O)C1 [1S,3R-ACPD]
Human EAA2a receptor [1]; concentrations up to 100 uM
  displacement of kainate: No displacement

## N#Cc1cc2[nH]c(=O)c(=O)[nH]c2cc1[N+](=O)[O-] [CNQX]
Human EAA2a receptor [1]
  rank order of potency in displacement of [3H]-labelled kainate binding: kainate>domoate>quisqualate>glutamate>DNQX>dihydrokainate>CNQX>AMPA

## O=c1[nH]c2cc([N+](=O)[O-])c([N+](=O)[O-])cc2[nH]c1=O [DNQX]
Human EAA2a receptor [1]
  rank order of potency in displacement of [3H]-labelled kainate binding: kainate>domoate>quisqualate>glutamate>DNQX>dihydrokainate>CNQX>AMPA

## CC(C)[C@H]1CN[C@H](C(=O)O)[C@H]1CC(=O)O [dihydrokainate]
Human EAA2a receptor [1]
  rank order of potency in displacement of [3H]-labelled kainate binding: kainate>domoate>quisqualate>glutamate>DNQX>dihydrokainate>CNQX>AMPA

## C/C(=C/C=C/[C@@H](C)C(=O)O)[C@H]1CN[C@H](C(=O)O)[C@H]1CC(=O)O [domoate]
Human EAA2a receptor [1]
  rank order of potency in displacement of [3H]-labelled kainate binding: kainate>domoate>quisqualate>glutamate>DNQX>dihydrokainate>CNQX>AMPA

## N[C@@H](CCC(=O)O)C(=O)O [glutamate, L-glutamic acid]
Human EAA2a receptor [1]
  rank order of potency in displacement of [3H]-labelled kainate binding: kainate>domoate>quisqualate>glutamate>DNQX>dihydrokainate>CNQX>AMPA
Human EAA2a receptor [2]
  specific binding of labelled ligand: specific

## C=C(C)[C@H]1CN[C@H](C(=O)O)[C@H]1CC(=O)O [kainate, kainic acid]
Human EAA2a receptor [1]
  Kd: 2.9 nM
  rank order of potency in displacement of [3H]-labelled kainate binding: kainate>domoate>quisqualate>glutamate>DNQX>dihydrokainate>CNQX>AMPA
Human EAA2a receptor [1]; Scatchard analysis of [3H]-kainate binding
  maximum binding (Bmax): 691 fmol/mg protein
Human EAA2a receptor [1]; [3H]-kainate at 5 nM, non-specific binding with 1 mM L-glutamate
  specific binding of labelled ligand: specific
Human EAA2a receptor [1]; nanomolar range
  kainate binding affinity (in words): high affinity

## N[C@@H](Cn1oc(=O)[nH]c1=O)C(=O)O [quisqualate]
Human EAA2a receptor [1]
  rank order of potency in displacement of [3H]-labelled kainate binding: kainate>domoate>quisqualate>glutamate>DNQX>dihydrokainate>CNQX>AMPA
